For series [1], the target named is T1, Metabotropic glutamate receptor 5 (Rattus norvegicus, UniProt P31424). Kind of series: Ago-positive allosteric modulation of rat mGlu5 receptor expressed in HEK293 cells by fluorescence-based calcium flux assay. The class given is functional, cell-based. On the technique in general: A change in cytosolic calcium serves as a functional read-out for many receptors and channels.

The target of series [2] is Metabotropic glutamate receptor 5 (Rattus norvegicus) (UniProt P31424). Briefly: Ago-positive allosteric modulation of rat mGlu5 receptor expressed in HEK293 cells by fluorescence-based calcium flux assay relative to glutamate. Type of series: functional, cell-based.
Series [3] concerns the target Metabotropic glutamate receptor 7 (Homo sapiens) (UniProt Q14831). Briefly: Positive allosteric modulation of mGluR7.
The next series has as its system Liver microsomes. Kind of series: Metabolic stability in rat liver microsomes assessed as compound remaining at 1 uM after 15 mins in presence of NADPH. The settings on record: 0.25 h. Type of series: ADME, Microsome. Background: Microsomes from liver hold many membrane-bound enzymes, among them those of drug oxidation.
Series [4] addresses T1, Metabotropic glutamate receptor 5. Briefly: Displacement of [3H]-methoxyPEPy from rat mGlu5 receptor expressed in HEK293 cells after 1 hr by scintillation counting analysis. Type of series: cell-based.
For series [5], the system named is Plasma. Kind of series: (§1) Fraction unbound in rat plasma at 5 uM after 4 hrs by equilibrium dialysis method. To be noted: 4 h, 5 µM. The class given is ADME, cell-free.
The target in series [6] is Metabotropic glutamate receptor 4 (Homo sapiens) (UniProt Q14833). Briefly: Positive allosteric modulation of mGluR4.
Sequence of Metabotropic glutamate receptor 4 (Homo sapiens) (Q14833 whole entry): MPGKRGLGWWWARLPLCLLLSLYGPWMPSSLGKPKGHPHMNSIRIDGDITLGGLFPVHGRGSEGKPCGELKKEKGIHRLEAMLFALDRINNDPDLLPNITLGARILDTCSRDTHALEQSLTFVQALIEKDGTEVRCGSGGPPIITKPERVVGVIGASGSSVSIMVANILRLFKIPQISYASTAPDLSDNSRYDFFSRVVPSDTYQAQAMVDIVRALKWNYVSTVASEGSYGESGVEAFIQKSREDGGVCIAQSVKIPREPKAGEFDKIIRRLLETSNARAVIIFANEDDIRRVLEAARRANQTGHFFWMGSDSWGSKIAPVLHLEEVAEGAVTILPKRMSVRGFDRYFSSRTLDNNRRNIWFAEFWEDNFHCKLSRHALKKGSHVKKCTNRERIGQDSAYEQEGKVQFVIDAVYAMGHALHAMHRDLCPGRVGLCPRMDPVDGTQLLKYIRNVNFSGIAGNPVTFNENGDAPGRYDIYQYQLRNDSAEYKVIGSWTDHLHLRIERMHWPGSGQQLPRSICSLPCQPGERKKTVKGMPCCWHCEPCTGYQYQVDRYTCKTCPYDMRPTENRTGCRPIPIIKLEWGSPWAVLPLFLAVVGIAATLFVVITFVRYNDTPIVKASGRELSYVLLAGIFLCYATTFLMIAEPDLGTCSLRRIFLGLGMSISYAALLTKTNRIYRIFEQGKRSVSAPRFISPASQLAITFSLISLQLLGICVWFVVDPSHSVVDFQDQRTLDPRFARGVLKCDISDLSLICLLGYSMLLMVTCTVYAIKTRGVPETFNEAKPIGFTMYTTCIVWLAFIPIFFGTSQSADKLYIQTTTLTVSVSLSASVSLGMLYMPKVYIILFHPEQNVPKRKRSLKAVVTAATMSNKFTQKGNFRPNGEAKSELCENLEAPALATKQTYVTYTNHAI
Series [7] has as its target Metabotropic glutamate receptor 6 (Homo sapiens) (UniProt O15303). Briefly: Positive allosteric modulation of mGluR6.
In series [8] the target is T2, Metabotropic glutamate receptor 5 (Homo sapiens, UniProt P41594). Briefly: Positive allosteric modulation of human mGlu5 receptor expressed in HEK293 cells by fluorescence-based calcium flux assay. Type of series: functional, cell-based.
Target sequence in this assay (P41594 whole entry): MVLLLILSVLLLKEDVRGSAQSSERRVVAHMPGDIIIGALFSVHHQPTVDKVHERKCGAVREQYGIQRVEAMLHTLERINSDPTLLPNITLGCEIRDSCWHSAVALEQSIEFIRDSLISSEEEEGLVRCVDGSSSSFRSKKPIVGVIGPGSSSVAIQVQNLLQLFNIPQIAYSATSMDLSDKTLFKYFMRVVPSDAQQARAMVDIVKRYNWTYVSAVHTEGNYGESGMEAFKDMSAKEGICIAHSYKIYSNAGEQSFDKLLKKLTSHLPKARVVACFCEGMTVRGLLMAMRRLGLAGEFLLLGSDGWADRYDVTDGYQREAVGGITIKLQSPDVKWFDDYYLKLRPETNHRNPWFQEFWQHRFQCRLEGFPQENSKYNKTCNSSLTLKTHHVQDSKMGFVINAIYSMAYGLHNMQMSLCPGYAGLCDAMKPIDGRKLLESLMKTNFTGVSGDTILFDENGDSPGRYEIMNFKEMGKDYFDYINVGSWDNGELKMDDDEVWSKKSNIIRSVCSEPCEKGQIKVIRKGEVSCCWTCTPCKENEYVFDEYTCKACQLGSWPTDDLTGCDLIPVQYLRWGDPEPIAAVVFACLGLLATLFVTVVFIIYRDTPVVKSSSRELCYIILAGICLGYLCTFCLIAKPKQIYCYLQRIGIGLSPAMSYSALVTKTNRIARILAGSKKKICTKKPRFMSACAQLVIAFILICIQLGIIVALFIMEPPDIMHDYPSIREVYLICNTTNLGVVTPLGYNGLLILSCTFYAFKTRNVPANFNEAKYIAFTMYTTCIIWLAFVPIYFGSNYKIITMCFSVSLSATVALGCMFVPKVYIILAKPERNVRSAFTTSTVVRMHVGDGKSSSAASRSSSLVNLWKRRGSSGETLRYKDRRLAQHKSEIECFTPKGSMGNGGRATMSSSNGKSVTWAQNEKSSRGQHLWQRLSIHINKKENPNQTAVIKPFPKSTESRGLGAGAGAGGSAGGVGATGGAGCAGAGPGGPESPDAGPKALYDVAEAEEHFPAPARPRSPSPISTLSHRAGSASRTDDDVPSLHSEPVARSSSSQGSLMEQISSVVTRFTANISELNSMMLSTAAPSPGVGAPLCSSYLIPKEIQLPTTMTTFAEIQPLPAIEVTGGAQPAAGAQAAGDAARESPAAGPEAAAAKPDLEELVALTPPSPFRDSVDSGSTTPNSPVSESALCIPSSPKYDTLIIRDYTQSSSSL
For series [9], the target named is T2, Metabotropic glutamate receptor 5. Kind of series: Positive allosteric modulation of human mGlu5 receptor expressed in HEK293 cells by fluorescence-based calcium flux assay relative to glutamate. The class given is functional, cell-based.
Series [10] has as its target Metabotropic glutamate receptor 3 (Homo sapiens) (UniProt Q14832). Briefly: Positive allosteric modulation of mGluR3.
Series [11] concerns the target Metabotropic glutamate receptor 2 (Homo sapiens) (UniProt Q14416). Kind of series: Positive allosteric modulation of mGluR2.
The target of series [12] is Metabotropic glutamate receptor 1 (Homo sapiens) (UniProt Q13255). Kind of series: Positive allosteric modulation of mGluR1.
For another series, the system named is HEK293. Briefly: Selectivity ratio of EC50 for human mGlu5 receptor expressed in HEK293 cells to EC50 for rat mGlu5 receptor expressed in HEK293 cells. Type of series: cell-based.
Series [13] deals with Metabotropic glutamate receptor 8 (Homo sapiens) (UniProt O00222). Kind of series: Positive allosteric modulation of mGluR8.
Series [14] deals with Metabotropic glutamate receptor 5 (Rattus norvegicus) (UniProt P31424). Kind of series: Displacement of [3H]-methoxyPEPy from rat mGlu5 receptor expressed in HEK293 cells up to 30 uM after 1 hr by scintillation counting analysis. The class given is cell-based. A general note: In a radioligand displacement assay an active substance lowers the binding of a labelled ligand.
In series [15] the test system is Plasma. Briefly: (§2) Fraction unbound in human plasma at 5 uM after 4 hrs by equilibrium dialysis method. Type of series: ADME, cell-free. The settings on record: 4 h, 5 µM.
The nature of series [16]: as §1. The class given is ADME, cell-free.
The nature of series [17]: Ratio of AUC in Sprague-Dawley rat brain at 10 mg/kg, ip to AUC in Sprague-Dawley rat plasma at 10 mg/kg, ip. Type of series: ADME, organism-based. To be noted: brain and plasma, read-out: Ratio AUC.
Series [18] in a line: Inhibition of sodium channel.
Series [19] in a line: as §2. The class given is ADME, cell-free.
Series [20] in a line: Inhibition of calcium channel.
The target of series [21] is Voltage-gated inwardly rectifying potassium channel KCNH2 (Homo sapiens, UniProt Q12809). Kind of series: Inhibition of human ERG.

What is called EC50 is the concentration that produces a half-maximal response. A word on the Emax: it is the size of the effect at its maximum, as opposed to the concentration needed. For orientation: Ki means a measure of affinity in units of concentration, obtained from inhibition or displacement. Read a high Ki as a looser hold on the target. Broadly, the pEC50 is the negative decadic logarithm of the EC50, by convention in mol/L. One may read the fraction unbound as the share of the substance not bound to proteins or other matrix. A lower fraction unbound goes with extensive binding. What is called IC50 is the midpoint of a concentration-inhibition curve.

Activity calls are given as the source filed them. No cut-off for these calls is given here.

Sequence of Metabotropic glutamate receptor 6 (Homo sapiens) (O15303 whole entry): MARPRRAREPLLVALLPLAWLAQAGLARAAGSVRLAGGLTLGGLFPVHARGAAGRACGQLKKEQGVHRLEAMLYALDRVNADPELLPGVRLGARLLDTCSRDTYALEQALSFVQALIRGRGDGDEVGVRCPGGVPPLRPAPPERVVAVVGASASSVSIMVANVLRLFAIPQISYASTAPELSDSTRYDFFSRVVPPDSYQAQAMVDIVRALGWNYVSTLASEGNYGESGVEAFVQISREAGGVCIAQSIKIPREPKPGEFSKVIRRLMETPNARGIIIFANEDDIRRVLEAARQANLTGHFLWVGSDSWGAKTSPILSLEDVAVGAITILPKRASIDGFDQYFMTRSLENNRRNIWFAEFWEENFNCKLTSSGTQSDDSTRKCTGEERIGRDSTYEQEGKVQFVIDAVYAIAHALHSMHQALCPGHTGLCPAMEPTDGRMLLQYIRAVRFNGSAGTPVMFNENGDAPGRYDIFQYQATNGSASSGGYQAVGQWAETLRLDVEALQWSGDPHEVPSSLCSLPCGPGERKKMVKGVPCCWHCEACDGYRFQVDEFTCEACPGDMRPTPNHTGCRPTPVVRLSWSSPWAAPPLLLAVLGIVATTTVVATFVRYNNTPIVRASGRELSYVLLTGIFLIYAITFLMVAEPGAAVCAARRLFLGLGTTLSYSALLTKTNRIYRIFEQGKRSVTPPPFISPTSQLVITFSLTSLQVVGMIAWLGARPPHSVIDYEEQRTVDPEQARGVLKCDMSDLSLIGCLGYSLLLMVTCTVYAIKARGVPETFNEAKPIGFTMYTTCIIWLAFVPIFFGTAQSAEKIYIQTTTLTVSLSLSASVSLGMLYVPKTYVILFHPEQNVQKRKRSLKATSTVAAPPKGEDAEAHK
T1 sequence (P31424 whole entry): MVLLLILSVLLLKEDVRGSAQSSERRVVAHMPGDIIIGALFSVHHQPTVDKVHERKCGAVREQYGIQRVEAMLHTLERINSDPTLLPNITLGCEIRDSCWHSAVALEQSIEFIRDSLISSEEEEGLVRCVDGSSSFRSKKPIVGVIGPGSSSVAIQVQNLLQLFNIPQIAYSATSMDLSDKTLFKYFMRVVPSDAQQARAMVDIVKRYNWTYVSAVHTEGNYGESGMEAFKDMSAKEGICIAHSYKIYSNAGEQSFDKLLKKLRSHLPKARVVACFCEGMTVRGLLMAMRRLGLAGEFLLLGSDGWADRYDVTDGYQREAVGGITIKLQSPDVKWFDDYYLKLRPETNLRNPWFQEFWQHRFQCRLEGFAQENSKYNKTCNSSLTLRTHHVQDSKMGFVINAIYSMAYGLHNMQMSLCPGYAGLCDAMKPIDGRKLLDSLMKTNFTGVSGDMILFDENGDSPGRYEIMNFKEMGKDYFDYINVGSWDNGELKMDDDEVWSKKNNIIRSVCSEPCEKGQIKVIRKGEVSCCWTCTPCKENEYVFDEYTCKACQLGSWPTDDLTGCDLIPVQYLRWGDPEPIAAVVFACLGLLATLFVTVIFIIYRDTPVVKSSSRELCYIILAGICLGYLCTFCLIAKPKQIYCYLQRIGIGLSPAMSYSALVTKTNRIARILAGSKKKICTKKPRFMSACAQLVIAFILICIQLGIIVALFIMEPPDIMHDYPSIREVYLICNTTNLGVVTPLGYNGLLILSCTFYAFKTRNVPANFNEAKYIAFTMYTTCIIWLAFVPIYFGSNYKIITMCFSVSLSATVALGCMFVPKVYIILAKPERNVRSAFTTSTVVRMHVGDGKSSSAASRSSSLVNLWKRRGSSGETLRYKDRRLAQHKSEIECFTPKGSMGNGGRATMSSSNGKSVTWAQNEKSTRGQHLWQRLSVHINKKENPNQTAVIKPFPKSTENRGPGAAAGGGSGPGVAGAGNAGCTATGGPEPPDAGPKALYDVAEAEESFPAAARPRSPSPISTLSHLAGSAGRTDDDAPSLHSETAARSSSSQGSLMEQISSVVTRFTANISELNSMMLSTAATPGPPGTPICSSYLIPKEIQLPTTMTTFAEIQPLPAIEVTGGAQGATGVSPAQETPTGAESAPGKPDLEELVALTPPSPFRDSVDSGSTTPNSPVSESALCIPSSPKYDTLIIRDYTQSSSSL
Sequence of Metabotropic glutamate receptor 2 (Homo sapiens) (Q14416 19-872 limits assumed): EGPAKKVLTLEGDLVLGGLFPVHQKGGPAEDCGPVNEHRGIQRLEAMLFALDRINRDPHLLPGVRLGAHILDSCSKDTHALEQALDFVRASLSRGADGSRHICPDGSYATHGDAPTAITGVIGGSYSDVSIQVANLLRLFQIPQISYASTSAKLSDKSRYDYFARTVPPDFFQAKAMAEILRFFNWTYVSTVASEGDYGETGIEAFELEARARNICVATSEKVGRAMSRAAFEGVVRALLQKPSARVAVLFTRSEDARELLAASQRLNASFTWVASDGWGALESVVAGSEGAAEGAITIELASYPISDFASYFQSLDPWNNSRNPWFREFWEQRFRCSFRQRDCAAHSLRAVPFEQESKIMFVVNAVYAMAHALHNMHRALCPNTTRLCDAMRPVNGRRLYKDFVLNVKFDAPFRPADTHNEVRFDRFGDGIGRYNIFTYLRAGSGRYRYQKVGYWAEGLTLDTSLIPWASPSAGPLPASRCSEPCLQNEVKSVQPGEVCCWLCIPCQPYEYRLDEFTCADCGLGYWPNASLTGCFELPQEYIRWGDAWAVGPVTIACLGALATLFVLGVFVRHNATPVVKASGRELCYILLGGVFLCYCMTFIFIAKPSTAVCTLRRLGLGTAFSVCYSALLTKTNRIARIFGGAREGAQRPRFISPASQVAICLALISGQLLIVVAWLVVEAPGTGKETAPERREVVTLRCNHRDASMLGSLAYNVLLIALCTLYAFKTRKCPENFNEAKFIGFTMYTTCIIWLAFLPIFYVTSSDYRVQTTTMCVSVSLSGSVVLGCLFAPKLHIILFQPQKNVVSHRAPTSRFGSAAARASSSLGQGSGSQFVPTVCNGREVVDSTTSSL

Turning to `CS(=O)(=O)N(CC(=O)Nc1ccccc1)c1ccccc1Cl`, the EC50 amounted to 0.07 µM in [1] and 1.38 µM in series [8] (read-out: EC50). For the same compound, the values for the maximum response (Emax) in series [2] and in series [9] were 61% and 77%, respectively. Moreover, the Activity in series [3], in series [6], in series [7], in [10], in [11] and in series [12] was more than 10 µM in each case. Moreover, the Stability result in the series on Liver microsomes was “<= 4%”. This compound came in with a Ki in [4] of more than 10 µM. In the series with Plasma [5], the Fu was found to be 0.13.

Regarding `CS(=O)(=O)N(CC(=O)Nc1cccc(Cl)c1)c1ccccc1Cl`, the half-maximal effective concentration (EC50) in [1] was 0.08 µM; in series [8] (read-out: EC50) it was 0.78 µM. For the same compound, the maximum response (Emax) in series [2] stood at 74%; in series [9], 63%. Moreover, the Activity in [3], in [6], in [7], in [10], in series [11] and in series [12] was more than 10 µM each time. The compound also gave an Activity in series [13] of more than 10 µM. In addition, in [4], the Ki is more than 10 µM. For the same compound, in the series on HEK293, the Ratio EC50 stood at 10.

`CCCC(C(=O)Nc1cccc(Cl)c1)N(c1ccccc1Cl)S(C)(=O)=O` (racemic): the concentration for a half-maximal effect (EC50) in [1] was more than 10 µM.

As for `CCS(=O)(=O)N1c2ccccc2CC[C@H]1C(=O)Nc1cccc(Cl)c1`, the concentration for a half-maximal effect (EC50) in series [1] is 2.5 µM. Besides, the Emax in series [2] is 74%.

As for `O=S(=O)(c1ccc(F)cc1)N1CCC[C@H](c2nc(-c3ccc(F)cc3)no2)C1`, the results for the EC50 in series [1] and in series [8] (read-out: EC50) were 3.4 µM and more than 10 µM, respectively. In addition, the maximal effect (Emax) in series [2] worked out at 84%; in [9] it was 43%. For the same compound, the result in [14] was inactive.

With `CC(C(=O)Nc1cccc(Cl)c1)N(c1ccccc1Cl)S(C)(=O)=O` (racemic), the concentration for a half-maximal effect (EC50) in series [1] worked out at 0.068 µM. Further, in series [2], the Emax is 43%.

`CS(=O)(=O)N1c2ccccc2CCC1C(=O)Nc1cccc(Cl)c1` (racemic): the EC50 in series [1] stood at 1 µM. Moreover, the Emax in series [2] came out at 60%.

With `O=C(Nc1ccc(Cl)cc1CN1C(=O)c2ccccc2C1=O)c1ccccc1O`, the Ratio EC50 in the series with HEK293 is 3.

Take `O=C(Nc1cccc(Cl)c1)[C@@H]1CCc2ccccc2N1S(=O)(=O)c1ccccc1F`: in [1], the EC50 was found to be 6.7 µM. In series [2], the Emax stood at 78%.

Take `CS(=O)(=O)N(CC(=O)Nc1cccnc1F)c1ccccc1Cl`: the EC50 is 1.74 µM in [1] and more than 10 µM in [8] (read-out: EC50). Also, the values for the maximal response (Emax) in series [2] and in series [9] were 64% and 42%, respectively. In addition, the negative logarithm of the EC50 (pEC50) in [8] (hek293) is recorded as less than 5.

With `CS(=O)(=O)N(CC(=O)Nc1ccc(F)nc1)c1ccccc1Cl`, the results for the EC50 in series [1] and in series [8] (read-out: EC50) were 4.47 µM and more than 10 µM, respectively. The maximal response (Emax) is 72% in [2] and 35% in series [9]. In addition, the pEC50 in [8] (hek293) is less than 5.

With `CCC(C(=O)Nc1cccc(Cl)c1)N(c1ccccc1Cl)S(C)(=O)=O` (racemic), the concentration for a half-maximal effect (EC50) in series [1] amounted to 3.3 µM.

Take `Cn1cnc(S(=O)(=O)N2c3ccccc3CCC2C(=O)Nc2cccc(Cl)c2)c1` (racemic): the EC50 in series [1] was more than 10 µM. The maximal effect (Emax) in [2] stood at 75%.

For `O=S(=O)(c1ccc(C#Cc2cccc(F)c2)cc1)N1CCOCC1`, the concentration for a half-maximal effect (EC50) in series [1] is 0.457 µM; in series [8] (hek293) it was “Not Active”. Moreover, in series [2], the Emax came out at 55%. Moreover, the result in [14] was inactive.

`CS(=O)(=O)N(CC(=O)Nc1ccc(F)cn1)c1ccccc1Cl`: the EC50 in [1] stood at 3.72 µM. Moreover, the Emax in series [2] is 66%. In addition, the Stability in the series with Liver microsomes was 39%. For the same compound, the Fu with Plasma [5] was 0.17; with Plasma [15], 0.09.

Consider `CS(=O)(=O)N1c2ccccc2CCC1C(=O)Nc1ccccn1` (racemic), for which the concentration giving a half-maximal response (EC50) in [1] came to 1.3 µM. Further, in series [2], the Emax turned out to be 68%.

Take `CS(=O)(=O)N(CC(=O)NCC1CC1)c1cc(C(F)(F)F)ccc1Cl`: the EC50 amounted to 0.398 µM in [1] and 4.5 µM in series [8] (read-out: EC50). Moreover, the figures for the Emax in [2] and in [9] were 61% and 70%, respectively. In addition, the Activity in series [3], in series [6], in series [7], in series [10], in series [11] and in series [12] was more than 10 µM in each case. Also, in [13], the Activity was more than 10 µM. This compound also yielded a Ki in series [4] of more than 30 µM. In addition, the free fraction (fraction unbound) at 4 h, 5 µM was found to be 0.13 in series [16] and 0.1 in series [19]. Besides, the Kp in series [17] was determined as 0.4. Moreover, the IC50 in series [18], in [20] and in series [21] was more than 10 µM throughout.

The record behind these values is ChEMBL document CHEMBL2203047, “Discovery and SAR of a novel series of non-MPEP site mGlu₅ PAMs based on an aryl glycine sulfonamide scaffold” (Bioorg Med Chem Lett, 2012).
